{"source": "patent US12077503B2", "about": "“Substituted cyclic amides and their use as herbicides” (FMC CORPORATION, priority 2015, dated 2024)", "format_in_all_cases": "in vivo", "key": {"[1]": {"test_system": "pigweed (Amaranthus retroflexus)", "assay": "Test A preemergence", "conditions": "Amaranthus retroflexus, pre-emergence, 240 h, preemergence, 0 to 100 scale where 0 is no effect and 100 is complete control, read-out: Pigweed plant response rating"}, "[2]": {"test_system": "ragweed (common ragweed, Ambrosia elatior)", "assay": "Test A preemergence", "conditions": "Ambrosia artemisiifolia, pre-emergence, 240 h, preemergence, 0 to 100 scale where 0 is no effect and 100 is complete control, read-out: Ragweed plant response rating", "method_in_brief": "(§1)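 Compounds were formulated in a non-phytotoxic solvent mixture with surfactant and applied as a preemergence directed soil spray after seeding, or sprayed postemergence over plants 2 to 10 cm tall at the one- to two-leaf stage. Evaluation after about 10 d compared treated with untreated controls, using a scale from 0 (no effect) to 100 (complete control).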"}, "[3]": {"test_system": "barnyardgrass (Echinochloa crus-galli)", "assay": "Test A preemergence", "conditions": "Echinochloa crus-galli, pre-emergence, 240 h, preemergence, 0 to 100 scale where 0 is no effect and 100 is complete control, read-out: Barnyardgrass plant response rating", "method_in_brief": "as §1"}, "[4]": {"test_system": "ryegrass, Italian (Italian ryegrass, Lolium multiflorum)", "assay": "Test A preemergence", "conditions": "Lolium multiflorum, pre-emergence, 240 h, preemergence, 0 to 100 scale where 0 is no effect and 100 is complete control, read-out: Ryegrass, Italian plant response rating", "method_in_brief": "as §1"}, "[5]": {"test_system": "giant foxtail (Setaria faberii)", "assay": "Test A preemergence", "conditions": "Setaria faberi, pre-emergence, 240 h, preemergence, 0 to 100 scale where 0 is no effect and 100 is complete control, read-out: Foxtail, Giant plant response rating", "method_in_brief": "as §1"}, "[6]": {"test_system": "Kochia (Kochia scoparia)", "assay": "Test A preemergence", "conditions": "Bassia scoparia, pre-emergence, 240 h, preemergence, 0 to 100 scale where 0 is no effect and 100 is complete control, read-out: Kochia plant response rating", "method_in_brief": "as §1"}, "[7]": {"test_system": "pigweed (Amaranthus retroflexus)", "assay": "Test A postemergence", "conditions": "Amaranthus retroflexus, post-emergence, 240 h, postemergence", "method_in_brief": "as §1"}, "[8]": {"test_system": "ragweed (common ragweed, Ambrosia elatior)", "assay": "Test A postemergence", "conditions": "Ambrosia artemisiifolia, post-emergence, 240 h, postemergence", "method_in_brief": "as §1"}, "[9]": {"test_system": "wheat (Triticum aestivum)", "assay": "Test A postemergence", "conditions": "Triticum aestivum, post-emergence, 240 h, postemergence", "method_in_brief": "as §1"}, "[10]": {"test_system": "corn (Zea mays)", "assay": "Test A postemergence", "conditions": "Zea mays, post-emergence, 240 h, postemergence", "method_in_brief": "as §1"}, "[11]": {"test_system": "Galium (catchweed bedstraw, Galium aparine)", "assay": "Test A postemergence", "conditions": "Galium, post-emergence, 240 h, postemergence", "method_in_brief": "as §1"}, "[12]": {"test_system": "barnyardgrass (Echinochloa crus-galli)", "assay": "Test A postemergence", "conditions": "Echinochloa crus-galli, post-emergence, 240 h, postemergence", "method_in_brief": "as §1"}, "[13]": {"test_system": "ryegrass, Italian (Italian ryegrass, Lolium multiflorum)", "assay": "Test A postemergence", "conditions": "Lolium multiflorum, post-emergence, 240 h, postemergence", "method_in_brief": "as §1"}, "[14]": {"test_system": "giant foxtail (Setaria faberii)", "assay": "Test A postemergence", "conditions": "Setaria faberi, post-emergence, 240 h, postemergence", "method_in_brief": "as §1"}, "[15]": {"test_system": "Kochia (Kochia scoparia)", "assay": "Test A postemergence", "conditions": "Bassia scoparia, post-emergence, 240 h, postemergence", "method_in_brief": "as §1"}}}
{"compound": "O=C1NCC[C@H](c2cccc(Cl)c2)[C@H]1C(=O)Nc1ccccc1F", "note": "[Compound 1159]", "values": [{"measurement": "pest or weed control at 125 g/ha", "setting": "[1]; 125 g ai/ha, approx. 10 d", "value": 0, "unit": "%"}, {"measurement": "pest or weed control at 500 g/ha", "setting": "[1]; 500 g ai/ha", "value": 0, "unit": "%"}, {"measurement": "pest or weed control at 125 g/ha", "setting": "[2]; 125 g ai/ha, approx. 10 d", "value": 0, "unit": "%"}, {"measurement": "pest or weed control at 500 g/ha", "setting": "[2]; 500 g ai/ha", "value": 0, "unit": "%"}, {"measurement": "pest or weed control at 125 g/ha", "setting": "[3]; 125 g ai/ha, approx. 10 d", "value": 60, "unit": "%"}, {"measurement": "pest or weed control at 500 g/ha", "setting": "[3]; 500 g ai/ha", "value": 90, "unit": "%"}, {"measurement": "pest or weed control at 125 g/ha", "setting": "[4]; 125 g ai/ha, approx. 10 d", "value": 0, "unit": "%"}, {"measurement": "pest or weed control at 500 g/ha", "setting": "[4]; 500 g ai/ha", "value": 0, "unit": "%"}, {"measurement": "pest or weed control at 125 g/ha", "setting": "[5]; 125 g ai/ha, approx. 10 d", "value": 70, "unit": "%"}, {"measurement": "pest or weed control at 500 g/ha", "setting": "[5]; 500 g ai/ha", "value": 90, "unit": "%"}, {"measurement": "pest or weed control at 125 g/ha", "setting": "[6]; 125 g ai/ha, approx. 10 d", "value": 0, "unit": "%"}, {"measurement": "pest or weed control at 500 g/ha", "setting": "[6]; 500 g ai/ha", "value": 30, "unit": "%"}, {"measurement": "pest or weed control at 125 g/ha", "setting": "[7]; 125 g ai/ha, visual injury vs untreated controls after approx. 10 d, 0 = no effect, 100 = complete control, read-out: Pigweed plant response rating (0 to 100 scale)", "value": 0, "unit": "%"}, {"measurement": "pest or weed control at 500 g/ha", "setting": "[7]; 500 g ai/ha, 0 to 100 scale, 0 is no effect, 100 is complete control, read-out: Pigweed plant response rating", "value": 20, "unit": "%"}, {"measurement": "pest or weed control at 125 g/ha", "setting": "[8]; 125 g ai/ha, visual injury vs untreated controls after approx. 10 d, 0 = no effect, 100 = complete control, read-out: Ragweed plant response rating (0 to 100 scale)", "value": 0, "unit": "%"}, {"measurement": "pest or weed control at 500 g/ha", "setting": "[8]; 500 g ai/ha, 0 to 100 scale, 0 is no effect, 100 is complete control, read-out: Ragweed plant response rating", "value": 0, "unit": "%"}, {"measurement": "plant injury at 125 g/ha", "setting": "[9]; 125 g ai/ha, visual injury vs untreated controls after approx. 10 d, 0 = no effect, 100 = complete control, read-out: Wheat plant response rating (0 to 100 scale)", "value": 0, "unit": "%"}, {"measurement": "plant injury at 500 g/ha", "setting": "[9]; 500 g ai/ha, 0 to 100 scale, 0 is no effect, 100 is complete control, read-out: Wheat plant response rating", "value": 0, "unit": "%"}, {"measurement": "plant injury at 125 g/ha", "setting": "[10]; 125 g ai/ha, visual injury vs untreated controls after approx. 10 d, 0 = no effect, 100 = complete control, read-out: Corn plant response rating (0 to 100 scale)", "value": 0, "unit": "%"}, {"measurement": "plant injury at 500 g/ha", "setting": "[10]; 500 g ai/ha, 0 to 100 scale, 0 is no effect, 100 is complete control, read-out: Corn plant response rating", "value": 20, "unit": "%"}, {"measurement": "pest or weed control at 125 g/ha", "setting": "[11]; 125 g ai/ha, visual injury vs untreated controls after approx. 10 d, 0 = no effect, 100 = complete control, read-out: Galium plant response rating (0 to 100 scale)", "value": 20, "unit": "%"}, {"measurement": "pest or weed control at 500 g/ha", "setting": "[11]; 500 g ai/ha, 0 to 100 scale, 0 is no effect, 100 is complete control, read-out: Galium plant response rating", "value": 20, "unit": "%"}, {"measurement": "pest or weed control at 125 g/ha", "setting": "[12]; 125 g ai/ha, visual injury vs untreated controls after approx. 10 d, 0 = no effect, 100 = complete control, read-out: Barnyardgrass plant response rating (0 to 100 scale)", "value": 90, "unit": "%"}, {"measurement": "pest or weed control at 500 g/ha", "setting": "[12]; 500 g ai/ha, 0 to 100 scale, 0 is no effect, 100 is complete control, read-out: Barnyardgrass plant response rating", "value": 90, "unit": "%"}, {"measurement": "pest or weed control at 125 g/ha", "setting": "[13]; 125 g ai/ha, visual injury vs untreated controls after approx. 10 d, 0 = no effect, 100 = complete control, read-out: Ryegrass, Italian plant response rating (0 to 100 scale)", "value": 0, "unit": "%"}, {"measurement": "pest or weed control at 500 g/ha", "setting": "[13]; 500 g ai/ha, 0 to 100 scale, 0 is no effect, 100 is complete control, read-out: Ryegrass, Italian plant response rating", "value": 0, "unit": "%"}, {"measurement": "pest or weed control at 125 g/ha", "setting": "[14]; 125 g ai/ha, visual injury vs untreated controls after approx. 10 d, 0 = no effect, 100 = complete control, read-out: Foxtail, Giant plant response rating (0 to 100 scale)", "value": 40, "unit": "%"}, {"measurement": "pest or weed control at 500 g/ha", "setting": "[14]; 500 g ai/ha, 0 to 100 scale, 0 is no effect, 100 is complete control, read-out: Foxtail, Giant plant response rating", "value": 70, "unit": "%"}, {"measurement": "pest or weed control at 125 g/ha", "setting": "[15]; 125 g ai/ha, visual injury vs untreated controls after approx. 10 d, 0 = no effect, 100 = complete control, read-out: Kochia plant response rating (0 to 100 scale)", "value": 0, "unit": "%"}, {"measurement": "pest or weed control at 500 g/ha", "setting": "[15]; 500 g ai/ha, 0 to 100 scale, 0 is no effect, 100 is complete control, read-out: Kochia plant response rating", "value": 0, "unit": "%"}]}
